Assay results reported in ChEMBL document CHEMBL1909046, “DrugMatrix in vitro pharmacology data”.

What was measured:
[1] = target: Mu-type opioid receptor (Homo sapiens, UniProt P35372); assay: DRUGMATRIX: Opiate mu (OP3, MOP) radioligand binding (ligand: [3H] Diprenorphine); type: cell membranes, CHO-K1, Membrane; conditions: cho-k1; Not Active = under 50% inhibition at 10 µM
[2] = DRUGMATRIX: Serotonin (5-Hydroxytryptamine) 5-HT3 radioligand binding (ligand: [3H] GR-65630); type: cell membranes, Membrane; conditions: hek293; Not Active = under 50% inhibition at 10 µM
[3] = target: Voltage-gated inwardly rectifying potassium channel KCNH2 (Homo sapiens, UniProt Q12809); conditions: hek293; further: in other assays of this panel Not Active means under 50% inhibition at 10 µM
Sequence of Voltage-gated inwardly rectifying potassium channel KCNH2 (Q12809 whole entry): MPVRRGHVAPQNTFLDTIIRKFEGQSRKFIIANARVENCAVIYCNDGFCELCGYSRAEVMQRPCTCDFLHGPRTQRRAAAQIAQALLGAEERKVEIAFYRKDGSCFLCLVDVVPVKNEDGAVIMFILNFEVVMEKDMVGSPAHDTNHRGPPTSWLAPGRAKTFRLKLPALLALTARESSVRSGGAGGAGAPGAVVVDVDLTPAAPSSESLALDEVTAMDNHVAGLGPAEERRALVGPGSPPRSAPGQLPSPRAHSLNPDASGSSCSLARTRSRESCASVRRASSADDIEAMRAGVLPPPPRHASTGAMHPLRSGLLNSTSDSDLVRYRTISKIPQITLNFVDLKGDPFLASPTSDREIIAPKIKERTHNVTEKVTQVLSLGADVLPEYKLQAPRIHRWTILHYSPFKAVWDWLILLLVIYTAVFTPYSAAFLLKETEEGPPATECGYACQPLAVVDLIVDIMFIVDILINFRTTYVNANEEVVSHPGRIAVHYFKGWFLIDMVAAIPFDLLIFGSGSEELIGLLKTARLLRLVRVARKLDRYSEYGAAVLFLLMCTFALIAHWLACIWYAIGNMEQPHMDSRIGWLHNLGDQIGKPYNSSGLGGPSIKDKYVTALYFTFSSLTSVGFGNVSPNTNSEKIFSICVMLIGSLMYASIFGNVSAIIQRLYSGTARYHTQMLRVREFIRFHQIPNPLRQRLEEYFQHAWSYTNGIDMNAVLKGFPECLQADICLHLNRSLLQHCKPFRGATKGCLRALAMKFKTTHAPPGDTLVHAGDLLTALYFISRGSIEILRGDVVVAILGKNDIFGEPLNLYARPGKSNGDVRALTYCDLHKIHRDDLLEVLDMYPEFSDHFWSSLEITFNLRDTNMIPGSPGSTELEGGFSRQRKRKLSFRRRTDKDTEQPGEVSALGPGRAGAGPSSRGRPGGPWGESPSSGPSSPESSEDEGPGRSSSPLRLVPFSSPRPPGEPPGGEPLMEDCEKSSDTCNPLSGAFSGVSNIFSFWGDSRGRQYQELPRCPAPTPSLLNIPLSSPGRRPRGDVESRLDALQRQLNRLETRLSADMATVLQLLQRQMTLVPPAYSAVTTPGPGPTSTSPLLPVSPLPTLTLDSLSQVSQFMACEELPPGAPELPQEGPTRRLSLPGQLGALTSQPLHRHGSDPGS

[4] = target: Substance-P receptor (Homo sapiens, UniProt P25103); type: cell membranes, CHO, Membrane; conditions: cho; further: in other assays of this panel Not Active means under 50% inhibition at 10 µM
Sequence of Substance-P receptor (P25103 whole entry): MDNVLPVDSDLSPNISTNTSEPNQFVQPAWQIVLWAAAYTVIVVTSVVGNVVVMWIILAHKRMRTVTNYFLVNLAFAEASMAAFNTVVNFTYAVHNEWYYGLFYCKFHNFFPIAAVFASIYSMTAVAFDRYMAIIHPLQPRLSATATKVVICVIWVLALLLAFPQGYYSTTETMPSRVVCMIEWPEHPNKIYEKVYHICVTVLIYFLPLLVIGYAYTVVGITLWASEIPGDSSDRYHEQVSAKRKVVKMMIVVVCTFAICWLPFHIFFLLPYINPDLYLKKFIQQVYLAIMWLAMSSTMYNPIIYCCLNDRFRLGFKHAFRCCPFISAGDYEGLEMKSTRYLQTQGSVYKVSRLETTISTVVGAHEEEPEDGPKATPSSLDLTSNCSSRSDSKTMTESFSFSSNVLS

[5] = DRUGMATRIX: Potassium Channel [KATP] radioligand binding (ligand: [3H] Glyburide); type: cell membranes, Membrane; conditions: hit-t15; Not Active = under 50% inhibition at 10 µM
[6] = DRUGMATRIX: Glutamate, Kainate radioligand binding (ligand: [3H] Kainic acid); type: cell membranes, Rattus norvegicus, Wistar, Brain, Membrane; conditions: Not Active = under 50% inhibition at 10 µM
[7] = target: T1, Endothelin-1 receptor (Homo sapiens, UniProt P25101); type: cell membranes, Membrane; conditions: cho-k1; further: in other assays of this panel Not Active means under 50% inhibition at 10 µM
T1 sequence (P25101 whole entry): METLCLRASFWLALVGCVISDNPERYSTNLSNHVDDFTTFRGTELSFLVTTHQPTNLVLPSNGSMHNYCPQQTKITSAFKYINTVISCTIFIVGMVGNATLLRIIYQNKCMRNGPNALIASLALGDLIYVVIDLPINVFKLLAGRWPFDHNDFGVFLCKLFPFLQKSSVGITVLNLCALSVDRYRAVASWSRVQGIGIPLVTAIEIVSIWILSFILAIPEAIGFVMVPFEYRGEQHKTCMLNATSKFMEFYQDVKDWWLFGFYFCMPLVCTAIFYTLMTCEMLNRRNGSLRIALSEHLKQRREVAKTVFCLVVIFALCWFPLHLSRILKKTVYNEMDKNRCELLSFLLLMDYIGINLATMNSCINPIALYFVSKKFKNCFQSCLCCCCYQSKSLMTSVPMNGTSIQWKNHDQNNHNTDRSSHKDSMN

[8] = target: Beta-3 adrenergic receptor (Homo sapiens, UniProt P13945); assay: DRUGMATRIX: Adrenergic beta3 radioligand binding (ligand: [125I] Cyanopindolol); type: cell membranes, HEK293, Membrane; conditions: hek293; Not Active = under 50% inhibition at 10 µM
Sequence of Beta-3 adrenergic receptor (P13945 whole entry): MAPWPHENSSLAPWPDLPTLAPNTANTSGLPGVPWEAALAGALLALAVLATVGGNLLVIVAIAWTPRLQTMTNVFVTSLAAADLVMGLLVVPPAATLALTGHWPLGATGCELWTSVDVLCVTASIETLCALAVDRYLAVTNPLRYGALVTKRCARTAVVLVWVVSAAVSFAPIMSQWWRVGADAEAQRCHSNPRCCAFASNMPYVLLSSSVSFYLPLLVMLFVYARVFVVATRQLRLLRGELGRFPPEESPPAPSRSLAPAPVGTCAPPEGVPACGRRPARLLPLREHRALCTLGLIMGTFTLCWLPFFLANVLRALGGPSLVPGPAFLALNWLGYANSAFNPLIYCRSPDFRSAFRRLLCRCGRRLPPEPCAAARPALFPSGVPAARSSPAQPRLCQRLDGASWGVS

[9] = target: T2, Alpha-2C adrenergic receptor (Homo sapiens, UniProt P18825); assay: DRUGMATRIX: Adrenergic Alpha-2C radioligand binding (ligand: [3H] MK-912); type: cell membranes, Sf9, Membrane; conditions: sf9
T2 sequence (P18825 whole entry): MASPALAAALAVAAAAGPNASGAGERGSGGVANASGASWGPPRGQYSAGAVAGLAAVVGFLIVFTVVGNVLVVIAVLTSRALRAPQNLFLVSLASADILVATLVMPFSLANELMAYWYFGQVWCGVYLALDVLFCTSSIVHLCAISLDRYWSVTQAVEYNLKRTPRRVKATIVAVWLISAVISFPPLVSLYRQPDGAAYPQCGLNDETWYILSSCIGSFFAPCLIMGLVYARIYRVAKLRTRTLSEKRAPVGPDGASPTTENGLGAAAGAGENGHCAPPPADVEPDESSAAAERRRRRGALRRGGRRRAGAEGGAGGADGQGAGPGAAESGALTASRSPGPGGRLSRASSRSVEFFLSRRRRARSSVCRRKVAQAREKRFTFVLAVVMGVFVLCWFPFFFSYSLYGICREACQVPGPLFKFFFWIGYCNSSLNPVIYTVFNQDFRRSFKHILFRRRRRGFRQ

[10] = target: T3, Angiotensin-converting enzyme (Oryctolagus cuniculus, UniProt P12822); assay: biochemical; type: tissue-based, Lung;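 further: enzymatic inhibition of angiotensin-converting enzyme measured with FAPGG as the substrate; in other assays of this panel Not Active means under 50% inhibition at 10 µM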
T3 sequence (P12822 whole entry): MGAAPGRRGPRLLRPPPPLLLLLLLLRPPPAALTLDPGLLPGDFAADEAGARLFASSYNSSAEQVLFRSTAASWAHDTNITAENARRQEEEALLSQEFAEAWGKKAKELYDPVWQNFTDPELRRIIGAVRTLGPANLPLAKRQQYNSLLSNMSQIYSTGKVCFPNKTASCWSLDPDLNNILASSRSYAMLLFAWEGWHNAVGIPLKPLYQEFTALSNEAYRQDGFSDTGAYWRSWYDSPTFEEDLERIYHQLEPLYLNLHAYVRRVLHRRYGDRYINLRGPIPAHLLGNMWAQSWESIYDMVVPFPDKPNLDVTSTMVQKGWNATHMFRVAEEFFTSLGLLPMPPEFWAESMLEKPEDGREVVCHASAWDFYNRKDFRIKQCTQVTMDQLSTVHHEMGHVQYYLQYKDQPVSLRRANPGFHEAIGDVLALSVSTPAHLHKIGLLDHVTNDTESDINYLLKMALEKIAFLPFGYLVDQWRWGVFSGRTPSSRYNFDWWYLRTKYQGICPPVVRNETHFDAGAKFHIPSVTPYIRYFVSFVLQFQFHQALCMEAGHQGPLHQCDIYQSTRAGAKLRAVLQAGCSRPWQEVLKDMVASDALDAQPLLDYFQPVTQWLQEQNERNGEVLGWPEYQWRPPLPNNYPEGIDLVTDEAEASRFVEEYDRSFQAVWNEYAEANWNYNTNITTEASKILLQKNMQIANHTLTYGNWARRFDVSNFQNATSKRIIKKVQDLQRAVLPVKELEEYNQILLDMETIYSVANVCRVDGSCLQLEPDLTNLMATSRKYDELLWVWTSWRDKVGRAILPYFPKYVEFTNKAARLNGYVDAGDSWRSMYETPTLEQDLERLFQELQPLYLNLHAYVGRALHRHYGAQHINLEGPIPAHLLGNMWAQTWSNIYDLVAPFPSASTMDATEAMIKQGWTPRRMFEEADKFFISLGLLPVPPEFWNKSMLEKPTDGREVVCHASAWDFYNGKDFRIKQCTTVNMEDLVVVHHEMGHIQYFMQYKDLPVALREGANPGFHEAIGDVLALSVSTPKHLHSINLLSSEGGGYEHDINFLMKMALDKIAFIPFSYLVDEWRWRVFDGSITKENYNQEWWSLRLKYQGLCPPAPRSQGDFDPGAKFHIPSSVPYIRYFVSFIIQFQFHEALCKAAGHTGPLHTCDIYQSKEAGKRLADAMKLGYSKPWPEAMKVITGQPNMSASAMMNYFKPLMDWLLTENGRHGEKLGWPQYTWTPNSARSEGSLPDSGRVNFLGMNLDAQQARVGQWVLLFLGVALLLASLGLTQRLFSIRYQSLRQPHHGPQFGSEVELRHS

[11] = target: Cytochrome P450 2C19 (Homo sapiens, UniProt P33261); conditions: bti-tn-5b1-4; further: in other assays of this panel Not Active means under 50% inhibition at 10 µM
Sequence of Cytochrome P450 2C19 (P33261 whole entry): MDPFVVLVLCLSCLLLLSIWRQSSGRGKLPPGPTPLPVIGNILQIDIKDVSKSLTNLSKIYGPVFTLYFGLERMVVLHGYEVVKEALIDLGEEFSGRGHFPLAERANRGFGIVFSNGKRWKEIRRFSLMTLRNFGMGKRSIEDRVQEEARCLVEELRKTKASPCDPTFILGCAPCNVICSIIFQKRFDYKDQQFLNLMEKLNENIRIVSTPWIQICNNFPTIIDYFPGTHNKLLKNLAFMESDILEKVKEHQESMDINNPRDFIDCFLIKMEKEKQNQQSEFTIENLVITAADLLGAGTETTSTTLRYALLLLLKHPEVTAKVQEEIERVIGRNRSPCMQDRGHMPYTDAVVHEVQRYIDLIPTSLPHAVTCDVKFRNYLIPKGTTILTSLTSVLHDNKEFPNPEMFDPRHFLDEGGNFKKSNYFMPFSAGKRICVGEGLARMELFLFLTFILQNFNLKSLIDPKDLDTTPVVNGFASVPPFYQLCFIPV

[12] = target: Prostaglandin G/H synthase 1 (Homo sapiens, UniProt P23219); assay: biochemical; type: tissue-based, Platelet; conditions: platelet
Sequence of Prostaglandin G/H synthase 1 (P23219 whole entry): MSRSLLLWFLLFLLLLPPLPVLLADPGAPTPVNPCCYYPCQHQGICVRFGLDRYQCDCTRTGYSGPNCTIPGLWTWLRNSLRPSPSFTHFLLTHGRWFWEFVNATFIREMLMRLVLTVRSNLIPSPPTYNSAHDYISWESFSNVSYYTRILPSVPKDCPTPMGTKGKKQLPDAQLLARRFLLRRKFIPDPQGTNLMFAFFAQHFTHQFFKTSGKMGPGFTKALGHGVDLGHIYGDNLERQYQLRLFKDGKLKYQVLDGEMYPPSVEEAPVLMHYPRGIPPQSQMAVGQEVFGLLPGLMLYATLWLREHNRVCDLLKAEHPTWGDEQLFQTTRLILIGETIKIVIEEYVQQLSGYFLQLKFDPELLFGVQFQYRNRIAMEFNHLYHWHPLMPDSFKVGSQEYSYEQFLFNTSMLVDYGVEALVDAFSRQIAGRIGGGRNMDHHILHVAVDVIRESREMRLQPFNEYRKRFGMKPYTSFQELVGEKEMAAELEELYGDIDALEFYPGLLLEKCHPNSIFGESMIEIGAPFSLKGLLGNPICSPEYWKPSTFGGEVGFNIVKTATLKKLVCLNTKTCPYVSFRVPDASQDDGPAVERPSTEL

Sequence of Mu-type opioid receptor (P35372 whole entry): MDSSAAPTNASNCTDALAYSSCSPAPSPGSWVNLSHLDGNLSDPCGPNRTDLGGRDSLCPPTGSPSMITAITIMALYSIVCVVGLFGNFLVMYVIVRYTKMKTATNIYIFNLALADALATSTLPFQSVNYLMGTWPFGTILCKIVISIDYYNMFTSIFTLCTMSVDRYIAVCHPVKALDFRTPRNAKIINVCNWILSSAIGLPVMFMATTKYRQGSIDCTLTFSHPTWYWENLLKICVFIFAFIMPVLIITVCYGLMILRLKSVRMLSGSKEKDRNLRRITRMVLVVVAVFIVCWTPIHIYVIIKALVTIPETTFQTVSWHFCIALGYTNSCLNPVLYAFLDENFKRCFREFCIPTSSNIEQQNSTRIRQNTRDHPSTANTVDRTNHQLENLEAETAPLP

C[C@]12CCC(=O)C=C1CC[C@@H]1[C@@H]2C(=O)C[C@@]2(C)[C@H]1CC[C@]2(O)C(=O)CO [CORTISONE]
Not Active: IC50 [1] | IC50 [2] | Ki [2] | IC50 [3] | Ki [3] | IC50 [4] | IC50 [5] | Ki [5] | IC50 [6] | Ki [6] | IC50 [7] | IC50 [8] | IC50 [9] | IC50 [10] | IC50 [11] | Ki [11] | IC50 [12]

Cc1ccccc1N1CCN(CCc2nnc3n2CCCC3)CC1 [DAPIPRAZOLE]
Not Active: IC50 [1] | IC50 [2] | Ki [2] | IC50 [3] | Ki [3] | IC50 [4] | IC50 [5] | Ki [5] | IC50 [6] | Ki [6] | IC50 [7] | IC50 [8] | IC50 [9] | IC50 [10] | IC50 [11] | Ki [11] | IC50 [12]

CC1=Nc2ccc(Cl)cc2S(=O)(=O)N1 [DIAZOXIDE]
Not Active: IC50 [1] | IC50 [2] | Ki [2] | IC50 [3] | Ki [3] | IC50 [4] | IC50 [5] | Ki [5] | IC50 [6] | Ki [6] | IC50 [7] | IC50 [8] | IC50 [9] | IC50 [10] | IC50 [11] | Ki [11] | IC50 [12]

CC(=O)OCC(=O)[C@@]1(OC(C)=O)[C@@H](C)C[C@H]2[C@@H]3C[C@H](F)C4=CC(=O)C=C[C@]4(C)[C@@]3(F)[C@@H](O)C[C@@]21C [DIFLORASONE DIACETATE]
Not Active: IC50 [1] | IC50 [2] | Ki [2] | IC50 [3] | Ki [3] | IC50 [4] | IC50 [5] | Ki [5] | IC50 [6] | Ki [6] | IC50 [7] | IC50 [8] | IC50 [9] | IC50 [10] | IC50 [11] | Ki [11] | IC50 [12]

CCc1ccc(C(=O)C(C)CN2CCCCC2)cc1 (stereo unspecified) [EPERISONE]
Not Active: IC50 [1] | IC50 [2] | Ki [2] | IC50 [3] | Ki [3] | IC50 [4] | IC50 [5] | Ki [5] | IC50 [6] | Ki [6] | IC50 [7] | IC50 [8] | IC50 [9] | IC50 [10] | IC50 [11] | Ki [11] | IC50 [12]

C=C1CC[C@H](O)C/C1=C/C=C1\CCC[C@]2(C)[C@@H]([C@H](C)/C=C/[C@H](C)C(C)C)CC[C@@H]12 [ERGOCALCIFEROL]
Not Active: IC50 [1] | IC50 [2] | Ki [2] | IC50 [3] | Ki [3] | IC50 [4] | IC50 [5] | Ki [5] | IC50 [6] | Ki [6] | IC50 [7] | IC50 [8] | IC50 [9] | IC50 [10] | IC50 [11] | Ki [11] | IC50 [12]

CC(=O)[C@@]1(O)CC[C@H]2[C@@H]3C[C@H](C)C4=CC(=O)C=C[C@]4(C)[C@@]3(F)[C@@H](O)C[C@@]21C [FLUOROMETHOLONE]
Not Active: IC50 [1] | IC50 [2] | Ki [2] | IC50 [3] | Ki [3] | IC50 [4] | IC50 [5] | Ki [5] | IC50 [6] | Ki [6] | IC50 [7] | IC50 [8] | IC50 [9] | IC50 [10] | IC50 [11] | Ki [11] | IC50 [12]

O=c1[nH]cc(F)c(=O)[nH]1 [FLUOROURACIL]
Not Active: IC50 [1] | IC50 [2] | Ki [2] | IC50 [3] | Ki [3] | IC50 [4] | IC50 [5] | Ki [5] | IC50 [6] | Ki [6] | IC50 [7] | IC50 [8] | IC50 [9] | IC50 [10] | IC50 [11] | Ki [11] | IC50 [12]
